Measured values reported in ChEMBL document CHEMBL1159198, “Identification of magnolol and honokiol as anxiolytic agents in extracts of saiboku-to, an oriental herbal medicine” (1998).
The source made the active and inactive calls. No cut-off for these calls is given here.

Legend:
Mus musculus [1] = assay: Anxiolytic activity in ddY mouse assessed as time spent in open-sided arms at 0.49 mg/kg, po administered once daily for 7 days by elevated plus-maze test; format: functional, organism-based; set-up: dose 0.49 mg/kg
Mus musculus [2] = assay: Anxiolytic activity in ddY mouse assessed as time spent in open-sided arms at 1 mg/kg, po administered once daily for 1 day by elevated plus-maze test; format: functional
Mus musculus [3] = assay: Anxiolytic activity in ddY mouse assessed as time spent in open-sided arms at 0.19 mg/kg, po administered once daily for 3 days by elevated plus-maze test; format: functional
Mus musculus [4] = assay: Anxiolytic activity in ddY mouse assessed as time spent in open-sided arms at 0.19 mg/kg, po administered once daily for 1 day by elevated plus-maze test; format: functional
Mus musculus [5] = assay: Anxiolytic activity in ddY mouse assessed as time spent in open-sided arms at 0.19 mg/kg, po administered once daily for 5 days by elevated plus-maze test; format: functional
Mus musculus [6] = assay: Anxiolytic activity in ddY mouse assessed as time spent in open-sided arms at 0.19 mg/kg, po administered once daily for 7 days by elevated plus-maze test; format: functional
Mus musculus [7] = assay: Anxiolytic activity in ddY mouse assessed as time spent in open-sided arms at 0.19 mg/kg, po administered once daily for 14 days by elevated plus-maze test; format: functional

| Compound | Activity (Mus musculus [1]) | Time (Mus musculus [2]) [s] | Time (Mus musculus [3]) [s] | Time (Mus musculus [4]) [s] | Time (Mus musculus [5]) [s] | Time (Mus musculus [6]) [s] | Time (Mus musculus [7]) [s] |
| --- | --- | --- | --- | --- | --- | --- | --- |
| C=CCc1ccc(O)c(-c2cc(CC=C)ccc2O)c1 | Active |  |  |  |  |  |  |
| CN1C(=O)CN=C(c2ccccc2)c2cc(Cl)ccc21 [DIAZEPAM] |  | 22.1 |  |  |  |  |  |
| C=CCc1ccc(O)c(-c2ccc(O)c(CC=C)c2)c1 [HONOKIOL] | Active |  | 4 | 3.7 | 9.1 | 10.9 | 12.3 |
